What was measured:
[1] = target: T1, cGKII (Mus musculus, UniProt Q61410); experiment: (γ-32P) ATP kinase assay with IRAGtide, activation of purified enzyme; assay type: biochemical
T1 construct: gene Prkg2; recombinant murine cGKII expressed in SF9 cells
T1 sequence (Q61410 2-762): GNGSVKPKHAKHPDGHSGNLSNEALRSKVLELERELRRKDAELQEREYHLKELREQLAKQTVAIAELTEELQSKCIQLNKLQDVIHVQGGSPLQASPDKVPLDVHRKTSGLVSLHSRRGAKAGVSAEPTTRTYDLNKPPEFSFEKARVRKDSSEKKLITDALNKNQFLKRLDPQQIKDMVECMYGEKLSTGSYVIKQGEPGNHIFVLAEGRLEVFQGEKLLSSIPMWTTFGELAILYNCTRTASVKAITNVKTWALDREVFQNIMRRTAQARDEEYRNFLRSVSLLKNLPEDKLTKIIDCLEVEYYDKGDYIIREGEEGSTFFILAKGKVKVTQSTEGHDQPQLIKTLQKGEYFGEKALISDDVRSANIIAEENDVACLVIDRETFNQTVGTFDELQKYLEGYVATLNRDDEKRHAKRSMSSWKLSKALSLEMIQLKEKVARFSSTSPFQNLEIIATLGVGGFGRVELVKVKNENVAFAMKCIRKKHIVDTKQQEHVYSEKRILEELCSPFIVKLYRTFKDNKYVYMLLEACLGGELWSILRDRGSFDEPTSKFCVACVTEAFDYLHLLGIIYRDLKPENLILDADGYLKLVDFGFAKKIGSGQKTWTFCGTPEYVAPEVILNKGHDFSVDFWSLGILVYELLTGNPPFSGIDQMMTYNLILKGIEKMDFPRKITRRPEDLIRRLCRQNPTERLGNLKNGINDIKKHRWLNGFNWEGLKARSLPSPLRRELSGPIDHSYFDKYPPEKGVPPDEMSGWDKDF

[2] = target: T2, cAKRIα (Mus musculus, UniProt Q9DBC7); experiment: 4-AH-cCMP agarose affinity chromatography competed by free cCMP; mass spectrometry and immunoblot (cAKRIα/β antibody); assay type: cell-based
T2 construct: gene Prkar1a; endogenous regulatory subunit in lung tissue lysate
T2 sequence (Q9DBC7 2-381): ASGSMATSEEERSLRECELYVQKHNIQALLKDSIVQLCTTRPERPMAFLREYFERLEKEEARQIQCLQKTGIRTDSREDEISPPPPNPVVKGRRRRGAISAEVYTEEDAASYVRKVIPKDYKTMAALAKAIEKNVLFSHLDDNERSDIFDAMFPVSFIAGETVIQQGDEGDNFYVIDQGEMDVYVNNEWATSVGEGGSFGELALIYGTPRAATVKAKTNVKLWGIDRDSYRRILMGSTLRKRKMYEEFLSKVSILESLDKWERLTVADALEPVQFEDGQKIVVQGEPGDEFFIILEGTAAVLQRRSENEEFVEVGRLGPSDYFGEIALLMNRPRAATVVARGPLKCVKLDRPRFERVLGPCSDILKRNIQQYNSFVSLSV

[3] = target: T3, cGKI (Mus musculus, UniProt P0C605)
T3 construct: gene Prkg1
T3 sequence (P0C605 2-671): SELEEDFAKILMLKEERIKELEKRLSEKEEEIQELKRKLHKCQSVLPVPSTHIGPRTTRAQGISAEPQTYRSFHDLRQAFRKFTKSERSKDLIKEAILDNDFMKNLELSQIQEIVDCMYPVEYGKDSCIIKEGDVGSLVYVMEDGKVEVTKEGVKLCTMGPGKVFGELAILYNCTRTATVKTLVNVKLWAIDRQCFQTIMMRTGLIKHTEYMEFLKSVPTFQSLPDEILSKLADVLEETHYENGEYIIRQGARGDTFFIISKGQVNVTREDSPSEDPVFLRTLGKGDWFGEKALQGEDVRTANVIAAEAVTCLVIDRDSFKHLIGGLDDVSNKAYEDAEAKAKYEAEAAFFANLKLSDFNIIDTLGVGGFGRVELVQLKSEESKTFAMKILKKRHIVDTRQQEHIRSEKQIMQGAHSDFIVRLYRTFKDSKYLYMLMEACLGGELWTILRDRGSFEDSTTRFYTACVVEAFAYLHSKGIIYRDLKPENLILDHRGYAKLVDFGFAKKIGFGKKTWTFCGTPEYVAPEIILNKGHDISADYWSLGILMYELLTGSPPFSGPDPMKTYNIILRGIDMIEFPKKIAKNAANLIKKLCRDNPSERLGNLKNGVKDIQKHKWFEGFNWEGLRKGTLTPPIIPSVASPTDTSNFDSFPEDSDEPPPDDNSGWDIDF

| EC50 [1] [µM] | EC50 [3] [µM] | SMILES | 4-AH-cCMP agarose affinity chromatography competed by free cCMP; mass spectromet [2] |
| --- | --- | --- | --- |
| 110 ± 8 |  | Nc1ccn([C@@H]2O[C@@H]3COP(=O)(O)O[C@H]3[C@H]2O)c(=O)n1 [cCMP] | Specific binding of cCMP to cAKRIα/β was also detected. |
|  | 2 ± 0.5 | Nc1nc2c(ncn2[C@@H]2O[C@@H]3COP(=O)(O)O[C@H]3[C@H]2O)c(=O)[nH]1 [cGMP] |  |
